“Also recorded” adds a separate entry of the source.
Key:
IL12/23 p40 mRNA = test: In vitro IL12/23 p40 mRNA expression assay; assay type: cell-based, mouse; conditions: CD11c+ dendritic cells, 20 μg/ml, 10 μg/ml peptidoglycan, 2-4 hours following administration
Protocol: In Vitro IL12/23 p40 mRNA Expression Assay:
Bone marrow-derived cell cultures were prepared as described hereinabove. On days 5-6 post culturing, the cell cultures were enriched for CD11c+ dendritic cells (>90%) with mouse CD11c microbeads over MS or LS columns (Miltenyi Biotech). CD11c+ dendritic cells were stimulated for 1, 2 and 3 hours with 10 μg/ml peptidoglycan alone or in the presence of 20 μg/ml of the tested compound added 1 hour before activation. RNA was extracted from cells using RNeasy mini kit (Qiagen, Valencia, Calif.). For cDNA preparation, 1 μg of RNA was combined with Oligo dT for 10 minutes at 70° C., 1st strand buffer. Dithiothreitol and dNTP and super-script reverse transcriptase (Invitrogen, Carlsbad, Calif.) were added for 50 minutes at 42° C. and the reaction was ended by incubation for an additional 15 minutes at 70° C. All real time PCR reactions were performed using LightCycler Taqman master (Roche Diagnostics, Mannheim, Germany) and run on the LightCycler machine (Roche). Ready sets of probe with primers were used for IL12/23 p40 and GAPDH assays (Applied Biosystems, assays #Mm01288992_m1 and Mm99999915_g1, respectively) with the latter served to normalize RNA levels. 20 μg/ml CI-201 and phosphatidylcholine (PC) were used as positive and negative controls respectively.

[1] = system: tyrosine phosphorylation in primary macrophages; test: Tyrosine phosphorylation assay in primary macrophages (Western blot); assay type: cell-based, mouse
Protocol: Tyrosine Phosphorylation Assay: Tyrosine phosphorylation in macrophages or bone marrow-derived cells (BMDCs) of mice was assayed. Mouse primary macrophages were isolated from the peritoneum of 7-8 week old C57BL/6 female mice following thioglycollate stimulation. […] Mouse primary bone marrow-derived cells were isolated by flushing bone marrow out of the femur and tibia of female SJL mice using cold RPMI-1640. […] Cells were then washed, resuspended in the same buffer and depleted of B and T cells on a Midi-Macs separation unit through a LD or LS column (Miltenyi Biotech). […] The medium was replaced every other day. […] Proteins with phosphorylated tyrosine were then observed by Western blot, using a monoclonal anti-phosphotyrosine antibody. Western blotting for ERK1/2 or α-tubulin was performed as a control for protein loading.

IL12/23 p40 = test: In vitro IL12/23p40 production assay; assay type: cell-based, mouse; conditions: bone marrow-derived cells, compound 1, 2.5, 5, 10 or 20 μg/ml for 1 hour, then 10 μg/ml peptidoglycan 24 hours, ELISA
Protocol: In Vitro IL12/23p40 Production Assay:
Bone marrow derived cells (BMDCs) were obtained from the femur and tibia of female C57BL mice, cultured, and seeded at a concentration of 10^6 cells/ml 5-6 days post-culturing, as described hereinabove for the tyrosine phosphorylation assay.
The tested compound was then added to the cells for 1 hour at a concentration of 1, 2.5, 5, 10 or 20 μg/ml. The cells were activated for IL12/23p40 production by incubation for 24 hours with 10 μg/ml peptidoglycan (PGN). Cytokine production from the supernatant was measured by ELISA. Activated cells without the tested compound were used as the control.

[2] = system: mouse peritoneal macrophages; test: In vitro toxicity assay; assay type: cell-based
Protocol: Thioglycollate-elicited mouse peritoneal macrophages were washed, counted and seeded (2×10^5 to 3×10^5 cells per well in 24-well plates) in triplicate wells in medium containing RPMI-1640, L-glutamine, 10% FBS and antibiotics (penicillin/streptomycin). After a recovery period of 24 hours, the tested compound (or controls) was added to the cell medium at doses of 2, 10, 20, 50, 100 or 150 μg/ml, keeping the added volume equal in all treatments by complementing the volume with solvent.
Following addition of the compounds, the cells were incubated for an additional 24 hours, after which the cells were washed, fixed with a solution of 10% methanol/10% acetic acid and stained with crystal violet (0.4% in 20% ethanol). Cell numbers were measured by determining optical density at 595 nm. Cells incubated with vehicle (PBS with 1% ethanol) were used as a control, to which cell numbers in treated samples were normalized.
Data are presented as mean±standard deviation. Statistical significance relative to vehicle-treated cells was calculated using a student's t-test, with p-values of less than 0.05 being considered as indicating statistical significance.

C57BL/6 mice = test: In vivo MOG-induced experimental autoimmune encephalomyelitis (EAE) assay; parameters: species or system mouse; conditions: 4 mg/kg orally, 5 consecutive days starting 5 days before immunization
Protocol: In Vivo Myelin Oligodendrocyte Glycoprotein (MOG)-Induced Experimental Autoimmune Encephalomyelitis (EAE) Assay:
C57BL/6 mice were orally administered with the indicated amount of the tested compound in a final volume of 200 μl for 5 consecutive days starting 5 days before immunization.
For EAE induction, mice were immunized subcutaneously with an emulsion containing 1.5 mg/ml MOG peptide 35-55 ([…]) and 2.5 mg/ml CFA (complete Freund's adjuvant), 100 μl emulsion being injected into each flank. Pertussis toxin (500 ng in 500 μl PBS) was administered intraperitoneally immediately and 48 hours after the immunization.
Onset of EAE was evaluated by a mean clinical score.

DBA/1 male mice = test: In vivo collagen-induced arthritis (CIA) assay; parameters: species or system mouse
Protocol: In Vivo Collagen-Induced Arthritis (CIA) Assay:
DBA/1 male mice were immunized to induce arthritis by a collagen injection containing complete Freund's adjuvant (CFA) in the base of the tail (day 0) and a booster shot in the flank (day 21). Mice were followed for arthritis development until day 36. Administration by gavage of the tested compound and control substances began on day 22 and was carried out on a daily basis (6 times per week).
Onset of arthritis was evaluated by an arthritis clinical score.

LDL-RD male mice = test: In vivo atherosclerotic lesion assay, LDL-RD mice; conditions: 1 mg/mouse (60 mg/kg) orally, 5 treatments every other day, western diet 5 weeks, aortic sinus
Protocol: (§1) In Vivo Atherosclerotic Lesion Assay:
12-16-week old LDL-RD male mice were orally administered with 0.2 ml of PBS or PBS with an indicated amount of the tested compound, once a day, every other day, for 5 treatments. The mice were challenged with western diet for 5 weeks and then sacrificed.
(§2) The quantification of atherosclerotic lesions was done by calculating the lesion size in the aortic sinus as previously described [Paigen et al., Quantitative assessment of atherosclerotic lesions in mice. Atherosclerosis 1987; 68:231-240] with a few modifications. Briefly, the heart and the aorta were removed from the animals, and the peripheral fat was cleaned carefully. The hearts were embedded in Optimal Cutting Temperature (OCT) gel and frozen. Aortic sinus lesion was determined from 3-8 Oil red O-stained serial sections (10 μm thick), throughout the aortic sinus (400 μm). The lesion area was calculated using a computer analyzing method (Image Pro Plus software [version 4.5.1.29], Medical Cybernetics Corporation).

ApoE KO mice = test: In vivo atherosclerotic lesion assay, ApoE KO mice; conditions: 1 mg/mouse (40 mg/kg) orally, 5 treatments every other day, sacrificed by the end of 8 weeks, aortic sinus
Protocol: as §1
Alternatively, 14-16-week old ApoE KO mouse were orally administered with 0.2 ml of PBS or PBS with an indicated amount of the tested compound, once a day, every other day, for 5 treatments, and sacrificed by the end of 8 weeks.
as §2

CCCCCCCCCCCCCCCCOC[C@H](COP(=O)([O-])OCC[N+](C)(C)C)OCCCCC(=O)O [CI-201, 1-hexadecyl-2-(4-carboxy)butyl-sn-glycero-3-phosphocholine, reference compound]
IL12/23 p40 mRNA expression (IL12/23 p40 mRNA): inhibition by CI-202 was comparable to the inhibition by CI-201
phosphotyrosine levels ([1]; 20 ng/ml): reduction
phosphotyrosine levels ([1]; 10 μg/ml, 10 minutes): caused an increase in phosphotyrosine levels
phosphotyrosine levels ([1]; 20 μg/ml, 10 minutes): caused a decrease in phosphotyrosine levels; also recorded: caused a reduction in phosphotyrosine levels

CCCCCCCCCCCCCCCCOCC(COP(=O)(O)OCCN)OCCCCC(=O)O (stereo not drawn) [CI-202, 1-Hexadecyl-2-(4-carboxy)butyl-glycero-3-phosphoethanolamine]
production of IL12/23 p40 (IL12/23 p40): inhibited production of IL12/23 p40 by bone marrow-derived cells in a dose-dependent manner
IL12/23 p40 mRNA expression (IL12/23 p40 mRNA): inhibited IL12/23 p40 mRNA expression during the whole tested time period
phosphotyrosine levels ([1]; 10 μg/ml, 10 minutes): induction of tyrosine phosphorylation
phosphotyrosine levels ([1]; 20 μg/ml, 10 minutes): reduction in phosphotyrosine levels
dose at which (significant) toxicity was detected ([2]; mouse, 24 h): above 50 μg/ml
development of MOG-induced EAE (mean clinical score) (C57BL/6 mice): delayed disease onset and reduced clinical manifestation of EAE
decrease of peak arthritis clinical score relative to the control mice (DBA/1 male mice; 0.4 mg/kg by gavage daily from day 22): 42%
arthritis severity (arthritis clinical score) (DBA/1 male mice; 0.4 mg/kg by gavage daily from day 22, followed until day 36): significantly decreased arthritis severity throughout the study period

CCCCCCCCCCCCCCCCOC[C@H](COP(=O)([O-])OCC[N+](C)(C)C)OCCCCC(O)CO (stereo partly drawn) [di-OH, 1-Hexadecyl-2-(5,6-dihydroxy)hexanyl-glycero-3-phosphocholine]
dose at which (significant) toxicity was detected ([2]; peritoneal macrophages, 24 hours, doses 2-150 μg/ml): ≥ 20 µg/mL
decrease of atherosclerotic lesion area as compared to the control (PBS) (LDL-RD male mice): 25%

CCCCCCCCCCCCCCCCOCC(COP(=O)([O-])OCC[N+](C)(C)C)OCCCCC(OC)OC (stereo not drawn) [diMeAc, 1-hexadecyl-2-(5′,5′-dimethoxypentyl)-glycero-3-phosphocholine]
decrease of atherosclerotic lesion area as compared to the control (PBS) (ApoE KO mice): 23%

Reference: patent US9206206B2, “Oxidized lipid compounds and uses thereof” (Vascular Biogenics Ltd., priority 2008, dated 2015)
